According to PubChem BioAssay (NCI):
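Exposure lasted 48 hours, with cells grown in 96-well plates and compounds tested at five concentrations. TGI marks complete inhibition of growth.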

Assays:
Test in all cases: NCI-60 cell line screen, 48 h
NCI-H522 lung = test system: NCI-H522 lung
MCF7 breast = test system: MCF7 breast
SK-MEL-5 melanoma = test system: SK-MEL-5 melanoma
UO-31 renal = test system: UO-31 renal
PC-3 prostate = test system: PC-3 prostate
KM12 colon = test system: KM12 colon
MDA-MB-435 = test system: MDA-MB-435
RXF 393 renal = test system: RXF 393 renal
LOX IMVI melanoma = test system: LOX IMVI melanoma
OVCAR-5 ovarian = test system: OVCAR-5 ovarian
ACHN renal = test system: ACHN renal
T-47D breast = test system: T-47D breast
OVCAR-8 ovarian = test system: OVCAR-8 ovarian
HT29 colon = test system: HT29 colon
K-562 leukemia = test system: K-562 leukemia
HCT-116 colon = test system: HCT-116 colon
COLO 205 colon = test system: COLO 205 colon
NCI/ADR-RES ovarian = test system: NCI/ADR-RES ovarian
OVCAR-3 ovarian = test system: OVCAR-3 ovarian
MDA-MB-231 breast = test system: MDA-MB-231 breast
SK-MEL-28 melanoma = test system: SK-MEL-28 melanoma
SF-295 CNS = test system: SF-295 CNS
CCRF-CEM leukemia = test system: CCRF-CEM leukemia
HOP-62 NSCLC = test system: HOP-62 NSCLC
NCI-H226 lung = test system: NCI-H226 lung
MDA-N = test system: MDA-N
MOLT-4 leukemia = test system: MOLT-4 leukemia
SNB-75 CNS = test system: SNB-75 CNS
SN12C renal = test system: SN12C renal
EKVX NSCLC = test system: EKVX NSCLC
TK-10 renal = test system: TK-10 renal
SF-539 CNS = test system: SF-539 CNS
IGROV1 ovarian = test system: IGROV1 ovarian
SF-268 CNS = test system: SF-268 CNS
U251 CNS = test system: U251 CNS
CAKI-1 renal = test system: CAKI-1 renal
A549 NSCLC = test system: A549 NSCLC
SK-OV-3 ovarian = test system: SK-OV-3 ovarian
HS 578T breast = test system: HS 578T breast
SK-MEL-2 melanoma = test system: SK-MEL-2 melanoma
DU-145 prostate = test system: DU-145 prostate
SW-620 colon = test system: SW-620 colon
RPMI-8226 leukemia = test system: RPMI-8226 leukemia
SR leukemia = test system: SR leukemia
UACC-257 melanoma = test system: UACC-257 melanoma
HCT-15 colon = test system: HCT-15 colon
HL-60(TB) leukemia = test system: HL-60(TB) leukemia
NCI-H460 lung = test system: NCI-H460 lung
786-0 renal = test system: 786-0 renal
M14 melanoma = test system: M14 melanoma
SNB-19 CNS = test system: SNB-19 CNS

Measured: TGI

CC1(C)CC(=O)c2c(nc3c(ccc4ccccc43)c2-c2ccc(NC(=O)CCCC(=O)Nc3ccc(-c4c5c(nc6c4ccc4ccccc46)CC(C)(C)CC5=O)cc3)cc2)C1
> 100 µM: all assays above
